This assay is described as follows: blockers of an Epstein-Barr virus protein-peptide interaction – biochemical, fluorescence polarization, dose response (AID 1419). To be noted: cell-free protein-peptide binding, 2 h; for fold change: measured here: P channel fold over control, at 54 µM. Background: Polarisation of emitted light reports the rotation of a fluorescent probe.

Among the data in PubChem BioAssay AID1419 (Emory University Molecular Libraries Screening Center, 2008) are IC50 and fold change values, retold here.

Molecules are shown by their SMILES. Active and inactive are the calls of the source. The rule behind the calls is not given here.

Turning to `Cc1ccccc1C(=O)Nc1ccc2c(C#N)c3nc4ccccc4nc3n2c1`, the IC50 is 13.7 µM and the fold change is 0.993.

For `O=C1c2cccc3cc([N+](=O)[O-])cc(c23)C(=O)N1/N=C/c1ccc(O)cc1O`, the IC50 was 10 µM and the fold change was 0.933. In the same order, the values of `CCOc1cc(/C=N/NC(=O)c2ccc(-c3csc(Nc4ccc(C)cc4)n3)cc2)ccc1OCC(=O)O` are 14.8 µM and 1.08.

On to `Cc1ccc(/C=C2\Sc3ccccc3C2=O)s1`, for which the IC50 is > 54 µM (inactive) and the fold change was found to be 1.61.

On to `Cc1c(N=C2N=C(NC(=O)c3cccs3)c3ccccc32)c(=O)n(-c2ccccc2)n1C`, for which the IC50 is 3.19 µM and the fold change came out at 4.49. In the same order, the values of `Cc1ccccc1N1C(=O)c2cccc3c(N(C)CCO)ccc(c23)C1=O` are 0.74 µM and 14. In the same order, the values of `CNc1cccc2c1C(=O)c1ccccc1C2=O` are 2.8 µM and 2.44. In the same order, the values of `O=C(OCCN1C(=O)c2cccc3c(N4CCOCC4)ccc(c23)C1=O)c1ccccc1Cl` are 2.87 µM and 65.4.

With `Cc1ccc(C2C(C(=O)c3ccco3)=C(O)C(=O)N2c2nnc(C)s2)cc1` (stereo not drawn), the IC50 was > 54 µM (inactive) and the fold change was determined as 1.75. The like results for `O=C(N=Nc1ccc(NOC(=O)c2ccccc2Br)cc1)c1ccccc1O` were, in that order, > 54 µM (inactive) and 0.957.

On to `CCOc1ccc(Cn2c3ccc(OC)cc3c3nc4ccccc4nc32)cc1`, for which the IC50 is 1.15 µM and the fold change came to 6.17. In the same order, the values of `C=CCn1c(O)c(N=NC(=O)CNC(=O)/C=C/c2ccco2)c2ccccc21` are > 54 µM (inactive) and 0.747. On to `NC(=O)c1sc2nc3c(c(-c4ccccc4)c2c1N)CCC3`, for which the IC50 is > 54 µM (inactive) and the fold change stood at 0.963. The like results for `CCOc1ccc(N/C=C/C(=O)c2ccc(OC)cc2)c([N+](=O)[O-])c1` were, in that order, 4.13 µM and 2.81. In the same order, the values of `CN(N=Nc1ccc([N+](=O)[O-])cc1)c1ccccc1` are 3.98 µM and 61.8. For `O=C(NC(NC(=S)Nc1ccc(Cl)cc1Cl)C(Cl)(Cl)Cl)c1cccc([N+](=O)[O-])c1` (stereo not drawn), the IC50 was > 54 µM (inactive) and the fold change turned out to be 0.953. In the same order, the values of `O=C(Nc1ccc(-n2cnnn2)cc1)C1CCC1` are > 54 µM (inactive) and 0.983. In the same order, the values of `O=C(CSc1nc(-c2ccccc2)nc2c1Cc1ccccc1O2)Nc1ccc(C(=O)O)cc1` are 1.64 µM and 1.12. `CC1C2C(C)N(C)C(=O)N(C)C2N(C)C(=O)N1C` (stereo not drawn): the IC50 was 8.68 µM and the fold change came out at 8.94. The like results for `O=C1NC(=O)C2=Cc3ccc(O)cc3OC2(O)N1` (stereo not drawn) were, in that order, < 0.42 µM and 100. As for `COc1cc2c(cc1NC(=O)CN1C(=O)NC3(CCc4ccccc43)C1=O)oc1ccccc12` (stereo not drawn), the IC50 was > 54 µM (inactive) and the fold change was determined as 0.93. Regarding `Cc1cc(-c2ccc(N3CCOCC3)cc2)nc2ccccc12`, the fold change stood at 2.8. Take `COc1ccc(C(CC(=O)N2CCOCC2)c2c(OC)cc(OC)c3c(-c4ccccc4)cc(=O)oc23)cc1` (stereo not drawn): the IC50 was > 54 µM (inactive) and the fold change worked out at 0.973. In the same order, the values of `O=c1c(O)cccc2cc(O)c(O)c(O)c12` are 2.85 µM and 1.86.

`CCOC(=O)C1=NNC(C(=O)c2ccc(Cl)cc2)C1c1ccc(OC)cc1` (stereo not drawn): the IC50 was > 54 µM (inactive) and the fold change was 0.933. `COc1cc(-c2ccc(Nc3ccccc3C(=O)O)c(OC)c2)ccc1Nc1ccccc1C(=O)O`: the IC50 is > 54 µM (inactive) and the fold change was 0.9.

Consider `Nc1cccc2c1C(=O)N(CC(=O)NC13CC4CC(CC(C4)C1)C3)C2=O`, for which the IC50 is 8.06 µM and the fold change came to 2.22.

Take `Cc1cc(Br)c2nc3c(c(C(=O)O)c2c1)CCCCC3`: the IC50 was > 54 µM (inactive) and the fold change was found to be 1.06.

Consider `O=C(O)COc1ccc(/C=N/NC(=O)c2ccc(-c3csc(Nc4ccc(Cl)cc4)n3)cc2)cc1`, for which the IC50 is 14.7 µM and the fold change amounted to 1.13. In the same order, the values of `Oc1c(Cl)cc(Cl)c(Cl)c1Cc1c(O)c(Cl)cc(Cl)c1Cl` are 5.97 µM and 0.987. For `COC(OC)c1ccnc(-c2ccc(OC(=O)c3cccs3)cc2)n1`, the IC50 was > 54 µM (inactive) and the fold change is 0.937. In the same order, the values of `CCOCCCNc1nc2c(C)cccn2c(=O)c1/C=C1\SC(=S)N(CC(C)C)C1=O` are > 54 µM (inactive) and 1.58.

Turning to `O=Cc1ccc2oc3nc4n(c(=O)c3c(=O)c2c1)CCCS4`, the IC50 is > 54 µM (inactive) and the fold change was determined as 1.03. The like results for `N#CC1=C(N)N2C(=C(C#N)C1c1ccccc1)Sc1ccccc12` (stereo not drawn) were, in that order, > 54 µM (inactive) and 2.54. As for `COC(=O)c1cc(NC(=O)c2ccccc2)c(=O)oc1/C=C/Nc1ccc(Oc2ccccc2)cc1`, the IC50 is 1.4 µM and the fold change is 22. In the same order, the values of `Cc1ccn(C(=O)c2ccc(NC(=O)C3CCCCC3)cc2)n1` are > 54 µM (inactive) and 0.987. In the same order, the values of `CCCn1c(SCCc2ccccc2)nc2c1c(=O)[nH]c(=O)n2C` are > 54 µM (inactive) and 0.953. In the same order, the values of `O=S(=O)(Nc1nc2ccccc2nc1-[n+]1cccc(N=C([O-])c2ccccc2Cl)c1)c1ccccc1` are 1.13 µM and 2.79. Regarding `Cc1cc(C)c2cc3c(ccn3C3OC[C@H](O)[C@H](O)[C@H]3O)cc2n1` (stereo partly drawn), the IC50 was 3.78 µM and the fold change worked out at 2.96. The like results for `CCCSCC(=O)Nc1ncc2c(n1)-c1ccccc1CC2` were, in that order, 5.28 µM and 2.7. In the same order, the values of `C=CCc1cccc2cc(C(=O)Nc3ccc(S(=O)(=O)Nc4nnc(CC)s4)cc3)c(=O)oc12` are > 54 µM (inactive) and 1.08.

Regarding `O=C(CSc1ccsc1[N+](=O)[O-])Nc1cccc(F)c1`, the IC50 was > 54 µM (inactive) and the fold change was 1.11. In the same order, the values of `CCC(=O)Nc1nc2n(n1)C(c1ccc(OC)cc1)C=C(c1ccccc1)N2` (stereo not drawn) are 5.14 µM and 2.8. The like results for `Cc1oc2cc(O)ccc2c(=O)c1-c1nncn1-c1ccccc1` were, in that order, 0.46 µM and 10.9.

On to `Oc1[nH]c2ccccc2c1N=Nc1ccccc1`, for which the IC50 was 18.8 µM and the fold change was found to be 21.6.

On to `CCOC(=O)c1c(/N=C/c2c(O)n(-c3ccc(F)cc3)c(=S)[nH]c2=O)sc2c1CCCC2`, for which the IC50 was 22.8 µM and the fold change was determined as 3.7.

For `CCN(CC)S(=O)(=O)c1ccc(C(=O)OCCN2C(=O)c3cccc4c(N5CCOCC5)ccc(c34)C2=O)cc1`, the IC50 is 1.53 µM and the fold change is 111.

By IC50 is commonly meant the concentration needed to halve the response being measured.
